IC50 data for 37 molecules are collected here from BindingDB's records for doi:10.1021/jm0101702 (Abbott Laboratories, 2001).

Usually IC50 stands for the concentration that gives 50% inhibition. A high value points to lower potency.

The nature of this experiment: Inhibition of VCAM-1 in human endothelial cells.

Structures are written as SMILES. Where only a bound is given, the exact number is not on record here.

`CCOC(=O)c1cccc(Oc2cncc3sc(C(N)=O)cc23)c1` [3-(2-Carbamoyl-thieno[2,3-c]pyridin-4-yloxy)-benzoic acid ethyl ester] showed an IC50 above 1000 nM.
With `NC(=O)c1cc2c(Oc3ccc(Cl)cc3Br)cncc2s1` [4-(2-Bromo-4-chloro-phenoxy)-thieno[2,3-c]pyridine-2-carboxylic acid amide], it took 330 nM to reach half-maximal inhibition (IC50).
Regarding `CCOC(=O)c1ccc(Oc2cncc3sc(C(N)=O)cc23)cc1` [4-(2-Carbamoyl-thieno[2,3-c]pyridin-4-yloxy)-benzoic acid ethyl ester], the IC50 was above 1000 nM.
The value for `NC(=O)c1cc2c(Oc3cccc(Br)c3)cncc2s1` [4-(3-Bromo-phenoxy)-thieno[2,3-c]pyridine-2-carboxylic acid amide] was above 1000 nM.
The figure for `NC(=O)c1cc2c(Oc3cccc(C(F)(F)F)c3)cncc2s1` [4-(3-Trifluoromethyl-phenoxy)-thieno[2,3-c]pyridine-2-carboxylic acid amide] is above 1000 nM; for `NC(=O)c1cc2c(Oc3ccc(N)cc3)cncc2s1` [4-(4-Amino-phenoxy)-thieno[2,3-c]pyridine-2-carboxylic acid amide] it is 64 nM.
The value for `Cc1cc(Cl)ccc1Oc1cncc2sc(C(N)=O)cc12` [4-(4-Chloro-2-methyl-phenoxy)-thieno[2,3-c]pyridine-2-carboxylic acid amide] was above 1000 nM; that for `NC(=O)c1cc2c(Oc3ccc(Cl)c(F)c3)cncc2s1` [4-(4-Chloro-3-fluoro-phenoxy)-thieno[2,3-c]pyridine-2-carboxylic acid amide] was above 1000 nM.
For the molecule `CNC(=O)c1cc2c(Oc3ccc(-n4ccnc4)cc3)cncc2s1` [4-(4-Imidazol-1-yl-phenoxy)-thieno[2,3-c]pyridine-2-carboxylic acid methylamide], the midpoint of inhibition, the IC50, lay at 19 nM.
The figure for `NC(=O)c1cc2c(Oc3ccc(I)cc3)cncc2s1` [4-(4-Iodo-phenoxy)-thieno[2,3-c]pyridine-2-carboxylic acid amide] is above 10 nM; for `CC(C)c1ccc(Oc2cncc3sc(C(N)=O)cc23)cc1` [4-(4-Isopropyl-phenoxy)-thieno[2,3-c]pyridine-2-carboxylic acid amide] it is above 100 nM.
The figure for `COCc1ccc(Oc2cncc3sc(C(N)=O)cc23)cc1` [4-(4-Methoxymethyl-phenoxy)-thieno[2,3-c]pyridine-2-carboxylic acid amide] is 23 nM; for `CNC(=O)c1cc2c(Oc3ccc(COC)cc3)cncc2s1` [4-(4-Methoxymethyl-phenoxy)-thieno[2,3-c]pyridine-2-carboxylic acid methylamide] it is above 24 nM.
The value for `CNC(=O)c1cc2c(Oc3ccc(N4CCOCC4)cc3)cncc2s1` [4-(4-Morpholin-4-yl-phenoxy)-thieno[2,3-c]pyridine-2-carboxylic acid methylamide] was above 1000 nM; that for `CNC(=O)c1cc2c(Oc3ccc(-n4cncn4)cc3)cncc2s1` [4-(4-[1,2,4]Triazol-1-yl-phenoxy)-thieno[2,3-c]pyridine-2-carboxylic acid methylamide] was 240 nM.
In the case of `CNC(=O)c1cc2c(Oc3ccc(C=CC(=O)NCCc4cnc[nH]4)cc3)cncc2s1` [4-(4-{2-[2-(1H-Imidazol-4-yl)-ethylcarbamoyl]-vinyl}-phenoxy)-thieno[2,3-c]pyridine-2-carboxylic acid methylamide], the IC50 was above 1000 nM.
The value for `CCOCCOCCOCC(F)(F)c1ccc(Oc2cncc3sc(C(=O)NC)cc23)cc1` [4-(4-{2-[2-(2-Ethoxy-ethoxy)-ethoxy]-1,1-difluoro-ethyl}-phenoxy)-thieno[2,3-c]pyridine-2-carboxylic acid methylamide] was 170 nM; that for `CNC(=O)c1cc2c(Oc3ccc(-c4ccccc4)cc3)cncc2s1` [4-(Biphenyl-4-yloxy)-thieno[2,3-c]pyridine-2-carboxylic acid methylamide] was 79 nM; that for `NC(=O)c1cc2c(Oc3ccc(C(O)CO)cc3)cncc2s1` (configuration not stated) [4-[4-(1,2-Dihydroxy-ethyl)-phenoxy]-thieno[2,3-c]pyridine-2-carboxylic acid amide] was 930 nM.
The figure for `NC(=O)c1cc2c(Oc3ccc(C(=O)N(C(=O)NC4CCCCC4)C4CCCCC4)cc3)cncc2s1` [4-[4-(1,3-Dicyclohexyl-ureidocarbonyl)-phenoxy]-thieno[2,3-c]pyridine-2-carboxylic acid amide] is above 1000 nM.
The value for `CNC(=O)c1cc2c(Oc3ccc(-c4nnn[nH]4)cc3)cncc2s1` [4-[4-(1H-Tetrazol-5-yl)-phenoxy]-thieno[2,3-c]pyridine-2-carboxylic acid methylamide] was above 1000 nM; that for `COCCOCc1ccc(Oc2cncc3sc(C(N)=O)cc23)cc1` [4-[4-(2-Methoxy-ethoxymethyl)-phenoxy]-thieno[2,3-c]pyridine-2-carboxylic acid amide] was above 1000 nM.
`CNC(=O)c1cc2c(Oc3ccc(COCCOC)cc3)cncc2s1` [4-[4-(2-Methoxy-ethoxymethyl)-phenoxy]-thieno[2,3-c]pyridine-2-carboxylic acid methylamide]: the IC50 was above 1000 nM.
The value for `NC(=O)c1cc2c(Oc3ccc(C(=O)NCCN4CCOCC4)cc3)cncc2s1` [4-[4-(2-Morpholin-4-yl-ethylcarbamoyl)-phenoxy]-thieno[2,3-c]pyridine-2-carboxylic acid amide] was above 1000 nM; that for `CNC(=O)c1cc2c(Oc3ccc(C(=O)NCCN4CCOCC4)cc3)cncc2s1` [4-[4-(2-Morpholin-4-yl-ethylcarbamoyl)-phenoxy]-thieno[2,3-c]pyridine-2-carboxylic acid methylamide] was above 1000 nM; that for `NC(=O)c1cc2c(Oc3ccc(/C=C/C(=O)NCCN(CCO)CCO)cc3)cncc2s1` [4-[4-(2-{2-[Bis-(2-hydroxy-ethyl)-amino]-ethylcarbamoyl}-vinyl)-phenoxy]-thieno[2,3-c]pyridine-2-carboxylic acid amide] was above 1000 nM.
The value for `CNC(=O)c1cc2c(Oc3ccc(/C=C/C(=O)NCCN(CCO)CCO)cc3)cncc2s1` [4-[4-(2-{2-[Bis-(2-hydroxy-ethyl)-amino]-ethylcarbamoyl}-vinyl)-phenoxy]-thieno[2,3-c]pyridine-2-carboxylic acid methylamide] was above 1000 nM.
The molecule `CNC(=O)c1cc2c(Oc3ccc(-c4cncn4C)cc3)cncc2s1` [4-[4-(3-Methyl-3H-imidazol-4-yl)-phenoxy]-thieno[2,3-c]pyridine-2-carboxylic acid methylamide] showed an IC50 above 180 nM.
The figure for `CNC(=O)c1cc2c(Oc3ccc(-c4noc(C(F)(F)F)n4)cc3)cncc2s1` [4-[4-(5-Trifluoromethyl-[1,2,4]oxadiazol-3-yl)-phenoxy]-thieno[2,3-c]pyridine-2-carboxylic acid methylamide] is above 1000 nM; for `NC(=O)c1cc2c(Oc3ccc(C(=O)N4CCOCC4)cc3)cncc2s1` [4-[4-(Morpholine-4-carbonyl)-phenoxy]-thieno[2,3-c]pyridine-2-carboxylic acid amide] it is above 1000 nM.
For `CNC(=O)c1cc2c(Oc3ccc(C(=N)NO)cc3)cncc2s1` [4-[4-(N-Hydroxycarbamimidoyl)-phenoxy]-thieno[2,3-c]pyridine-2-carboxylic acid methylamide], the half-maximal inhibitory concentration (IC50) is above 1000 nM.
In turn, `NC(=O)c1cc2c(Oc3ccc(COC4CCCCO4)cc3)cncc2s1` (configuration not stated) [4-[4-(Tetrahydro-pyran-2-yloxymethyl)-phenoxy]-thieno[2,3-c]pyridine-2-carboxylic acid amide] displayed a half-inhibitory concentration (IC50) above 1000 nM.
The figure for `Cc1ccc(Oc2cncc3sc(C(N)=O)cc23)cc1` [4-p-Tolyloxy-thieno[2,3-c]pyridine-2-carboxylic acid amide] is 11000 nM; for `NC(=O)c1cc2c(Oc3ccc(/C=C/C(=O)NCC(O)CO)cc3)cncc2s1` (configuration not stated) [4-{4-[2-(2,3-Dihydroxy-propylcarbamoyl)-vinyl]-phenoxy}-thieno[2,3-c]pyridine-2-carboxylic acid amide] it is above 1000 nM.
The value for `CNC(=O)c1cc2c(Oc3ccc(/C=C/C(=O)NCC(O)CO)cc3)cncc2s1` (configuration not stated) [4-{4-[2-(2,3-Dihydroxy-propylcarbamoyl)-vinyl]-phenoxy}-thieno[2,3-c]pyridine-2-carboxylic acid methylamide] was above 1000 nM.
In the case of `NC(=O)c1cc2c(Oc3ccc(/C=C/C(=O)NCCN4CCOCC4)cc3)cncc2s1` [4-{4-[2-(2-Morpholin-4-yl-ethylcarbamoyl)-vinyl]-phenoxy}-thieno[2,3-c]pyridine-2-carboxylic acid amide], the IC50 was above 1000 nM.
The value for `CNC(=O)c1cc2c(Oc3ccc(/C=C/C(=O)NCCN4CCOCC4)cc3)cncc2s1` [4-{4-[2-(2-Morpholin-4-yl-ethylcarbamoyl)-vinyl]-phenoxy}-thieno[2,3-c]pyridine-2-carboxylic acid methylamide] was above 1000 nM.
